Patent US11419878B2, “Medicine obtained by combining FXR agonist and ARB” (Intercept Pharmaceuticals, Inc., priority 2016, dated 2022)

What was measured:
[1] = test system: human hepatic stellate cells (HHSC); experiment: HHSC proliferation inhibition, WST-1 cell proliferation assay; assay type: cell-based; conditions: AT-II 10^-6M + LPS 10^-5M; ARB 10^-6M, obeticholic acid 5×10^-6M; 24 hours; WST-1 absorbance
Method: The various combined effects of obeticholic acid and three types of ARBs (losartan, valsartan, and candesartan) were confirmed in an in vitro cell system experiment. Specifically, using human hepatic stellate cells (HHSC), which are implicated in the main mechanism of progression of hepatic fibrosis in NASH, the effects of administration of obeticholic acid in combination with the three ARBs of inhibiting HHSC proliferation capacity and the expression of fibrosis markers were evaluated according to the following method. Human hepatic stellate cells (HHSC) (also referred to as human hepatic star cells) Obeticholic acid (obtained from Intercept Pharmaceuticals, Inc. via Sumitomo Dainippon Pharma Co., Ltd.) was used as an FXR agonist, and commercial losartan (potassium salt of losartan; referred to in this working example simply as “losartan”) and valsartan and candesartan ([…] of candesartan; referred to in this working example simply as “candesartan”) were used as ARBs. […] The direct action of inhibiting HIISC proliferation capacity was evaluated by means of a cell proliferation assay using WST-1 reagent. […] AT-II (10^-6M) Positive control group L […]): LPS 10^-5M) Positive control group AL ([…]): (10^-6M)+LPS (10^-5M) Obeticholic acid administration (G3): AT-II (10^-6M)+LPS (10^-5M)+obeticholic acid (5×10^-6M) ARB administration (G4): AT-II (10^-6M)+LPS (10^-5M)+ARB (10^-6M) Obeticholic acid+ARB combined administration (G5): AT-II (10^-6M)+LPS (10^-5M)+obeticholic acid (5×10^-6M)+ARB (10^-6M) 3) After the cells of the above groups (G1, G2A, G2L, G2AL, G3, G4, G5) were cultured for 24 hours, respective WST-1 cell proliferation assays were conducted, and the inhibitory effect of the pharmaceutical agents on cell proliferation was evaluated. The inhibitory effect of valsartan and candesartan on HHSC proliferation was also evaluated according to steps 1)-3) above. […]

[2] = test system: TGF-β1; experiment: HHSC fibrosis marker gene expression, RT-PCR, TGF-β1; assay type: cell-based, human; conditions: AT-II 10^-6M + LPS 10^-5M; ARB 10^-6M, obeticholic acid 5×10^-6M; 24 hours; monotherapy vs G2AL, combination vs monotherapy groups
Method: (§1) The various combined effects of obeticholic acid and three types of ARBs (losartan, valsartan, and candesartan) were confirmed in an in vitro cell system experiment. Specifically, using human hepatic stellate cells (HHSC), which are implicated in the main mechanism of progression of hepatic fibrosis in NASH, the effects of administration of obeticholic acid in combination with the three ARBs of inhibiting HHSC proliferation capacity and the expression of fibrosis markers were evaluated according to the following method. Human hepatic stellate cells (HHSC) (also referred to as human hepatic star cells) Obeticholic acid (obtained from Intercept Pharmaceuticals, Inc. via Sumitomo Dainippon Pharma Co., Ltd.) was used as an FXR agonist, and commercial losartan (potassium salt of losartan; referred to in this working example simply as “losartan”) and valsartan and candesartan ([…] of candesartan; referred to in this working example simply as “candesartan”) were used as ARBs. Angiotensin II (AT-II) and/or lipopolysaccharide (LPS) were used (both AT1-mediated AT-II signalling and TLR4-mediated LPS signaling are known to play major roles in HSC activation and the progression of hepatic fibrosis). With respect to the effect of inhibiting fibrosis marker gene expression, collagen production capacity and TGF-β production capacity were evaluated by the RT-PCR method. 1) HHSCs were inoculated onto a 6-well plate in the amount of 300,000 cells/2 ml and allowed to proliferate in 1% FBS DMEM medium for 24 hours. 2) After 24 hours, the cells were divided into the following 7 groups and transferred to culture medium after adding the following drugs and/or reagents. Losartan was used as an ARB. Negative control group (G1): No drugs added (control) […] AT-II (10^-6M) Positive control group L […]): LPS (10^-5M) Positive control group AL ([…]): (10^-6M)+LPS (10^-5M) Obeticholic acid administration (G3): AT-II (10^-6M)+LPS (10^-5M)+obeticholic acid (5×10^-6M) ARB administration (G4): AT-II (10^-6M)+LPS (10^-5M)+ARB (10^-6M) Obeticholic acid+ARB combined administration (G5): AT-II (10^-6M)+LPS (10^-5M)+obeticholic acid (5×10^-6M)+ARB (10^-6M) […] Evaluations were conducted in the five groups G1, G2AL, G3, G4, and G5.

[3] = test system: α1(I) procollagen; experiment: HHSC fibrosis marker gene expression, RT-PCR, α1(I) procollagen; assay type: cell-based, human; conditions: AT-II 10^-6M + LPS 10^-5M; ARB 10^-6M, obeticholic acid 5×10^-6M; 24 hours; monotherapy vs G2AL, combination vs monotherapy groups
Method: as §1

CCOc1nc2cccc(C(=O)O)c2n1Cc1ccc(-c2ccccc2-c2nn[nH]n2)cc1 [candesartan]
statistically significant inhibition: promotion of activated HHSC proliferation by AT-II and LPS, compared to positive control group AL (G2AL) [1] | TGF-β1 mRNA expression induced by AT-II and LPS in HHSC [2] | α1(I)-procollagen mRNA expression induced by AT-II and LPS in HHSC [3]

CCCCC(=O)N(Cc1ccc(-c2ccccc2-c2nnn[nH]2)cc1)[C@H](C(=O)O)C(C)C [valsartan]
statistically significant inhibition: promotion of activated HHSC proliferation by AT-II and LPS, compared to positive control group AL (G2AL) [1] | TGF-β1 mRNA expression induced by AT-II and LPS in HHSC [2] | α1(I)-procollagen mRNA expression induced by AT-II and LPS in HHSC [3]
